Data from US7553974B2, “Crystal of (2R,4R)-monatin potassium salt and sweetener composition containing same” (Ajinomoto Co., Inc., priority 2004, dated 2009).
Where a name gives a salt, the structure may show the parent alone. Read-outs that look alike come from different tables or passages of the source.

Legend:
[1] = assay type: physicochemical; details: for transmittance (%): 1 g/dl in H2O, room temperature, 490 nm
Text: The crystals of the (2R,4R)-monatin dipotassium salt obtained in Example 9, (2R,4R)-monatin, and crystals of the (2R,4R)-monatin monopotassium salt produced according to the production method described in the aforementioned WO03/045914 were subjected to a coloring test. Measurement Method of Coloring Test: • Measurement device: CARY 50 UV-VIS spectrophotometer manufactured by Varian Technologies Japan Limited; • Concentration: 1 g/dl; • Solvent: H2O; • Temperature: room temperature; • Measurement wavelength: 490 nm; and • Measurement interval: 30 minutes.

[2] = assay type: physicochemical; details: for area %: HPLC area of (2R,4R)-monatin relative to total peak area, 210 nm, 60° C. preservation sample; for area % / weight change (%): 1 week; for weight change (%): HPLC quantitation value of 60° C. sample, room temperature sample = 100%
Procedure: The crystals of the (2R,4R)-monatin dipotassium salt obtained in Example 1 and Example 9, and crystals of the (2R,4R)-monatin monopotassium salt produced according to the production method described in the aforementioned WO03/045914 were subjected to a preservation stability test. Each sample (50 mg) was placed in a 4 ml vial (with screw cap) and stored at 60° C. and room temperature for 1 week.
A chromatogram for each sample was measured by HPLC, and the HPLC quantitation value of the 60° C. preservation sample, when that of the room temperature preservation sample was 100%, was shown as a weight change. In addition, an HPLC chromatogram of each sample was measured and the ratio of the area value of (2R,4R)-monatin relative to the total area value of the entire peaks detected (detection wavelength: 210 nm) in the 60° C. preservation sample was expressed as the area %.

[3] = assay type: physicochemical
Procedure: The crystals of the (2R,4R)-monatin dipotassium salt obtained in Example 9 and crystals of the (2R,4R)-monatin monopotassium salt were tested for solubility using the following conditions” • Temperature: 20° C.; and
Solubility measurement method: Two test tubes for each of 0, 20, 40, 60, 80, 100% ethanol, which contained 2 ml thereof were prepared. The crystals of the (2R,4R)-monatin dipotassium salt and crystals of the (2R,4R)-monatin monopotassium salt were added thereto in an amount prohibiting complete dissolution. The test tubes were capped and stirred overnight. Then, the mixture was passed through a filter (0.45 μm) and the filtrate was analyzed.

NC(CC(O)(Cc1c[nH]c2ccccc12)C(=O)O)C(=O)O [(2R,4R)-monatin monopotassium salt]
transmittance (%) ([1]; time 0.0 hour): 100.02%
transmittance (%) ([1]; time 2.0 hour): 99.75%
transmittance (%) ([1]; time 4.0 hour): 99.28%
transmittance (%) ([1]; time 6.0 hour): 98.42%
transmittance (%) ([1]; time 8.0 hour): 97.98%
transmittance (%) ([1]; time 10.0 hour): 96.86%
transmittance (%) ([1]; time 12.0 hour): 95.61%
transmittance (%) ([1]; time 14.0 hour): 94.35%
transmittance (%) ([1]; time 16.0 hour): 92.97%
transmittance (%) ([1]; time 18.0 hour): 91.49%
transmittance (%) ([1]; time 20.0 hour): 90.05%
transmittance (%) ([1]; time 22.0 hour): 88.75%
area % [2]: 99.8%
weight change (%) [2]: 100%

N[C@H](C[C@](O)(Cc1c[nH]c2ccccc12)C(=O)[O-])C(=O)[O-].[K+].[K+] [Example 1, (2R,4R)-monatin dipotassium salt]
area % ([2]; dipotassium salt): 98.4%
weight change (%) ([2]; dipotassium salt): 99%

N[C@H](C[C@](O)(Cc1c[nH]c2ccccc12)C(=O)[O-])C(=O)[O-].[K+].[K+] [Example 9, (2R,4R)-monatin dipotassium salt]
solubility [3]: superior
color stability [1]: superior
transmittance (%) ([1]; time 0.0 hour): 99.63%
transmittance (%) ([1]; time 2.0 hour): 99.60%
transmittance (%) ([1]; time 4.0 hour): 99.51%
transmittance (%) ([1]; time 6.0 hour): 99.43%
transmittance (%) ([1]; time 8.0 hour): 99.44%
transmittance (%) ([1]; time 10.0 hour): 99.44%
transmittance (%) ([1]; time 12.0 hour): 99.41%
transmittance (%) ([1]; time 14.0 hour): 99.42%
transmittance (%) ([1]; time 16.0 hour): 99.39%
transmittance (%) ([1]; time 18.0 hour): 99.35%
transmittance (%) ([1]; time 20.0 hour): 99.39%
transmittance (%) ([1]; time 22.0 hour): 99.38%
preservation stability [2]: almost of the same level
area % [2]: 99.6%
weight change (%) [2]: 103%
